Experimental data reported in US9556378B2, “Chelating agent precursors, fluids containing them, and their use” (AKZO NOBEL CHEMICALS INTERNATIONAL B.V., priority 2011, dated 2017).

Assays:
Assay type in all cases: physicochemical
[1] = Hydrolysis rate of chelate esters followed by Fe-TSV (released chelate acid); settings: for solubility of the chelate acid compared with EDTA acid: observed on hydrolysis of the esters, solid EDTA is formed; for rate of hydrolysis (in words): 20 wt % ester in demi water, 90° C., Fe-TSV, FIG. 1-3; for effect of pH on hydrolysis rate (release of chelating agent): pH adjusted with caustic to 7 versus ~1, FIG. 4
Experimental: (§1) In several experiments the hydrolysis of the chelate esters of Example 2 was investigated. First, the hydrolysis rate of the chelate esters was determined with ^1H and ^13C-NMR. […] Secondly, the hydrolysis rate was followed by determination of the Fe-TSV, which gives the concentration of the released chelate acid. To determine the Fe-TSV the chelate ester was added to demi water in a 5 ml glass vial, resulting in an ester concentration of 20 wt %. The mixture was continuously homogenized by shaking and a treatment in the ultrasonic bath. Subsequently, the vial was placed in a stove at 90° C. to simulate well conditions. After certain time intervals a sample was taken and analyzed on Fe-TSV. The percentage of hydrolysis is defined by:
The calculated chelate concentration at the start is calculated from the intake of the ester. The value is corrected for the purity as measured by NMR, assuming a 100% conversion of the corresponding chelate.

[2] = Solubility of chelate ester in water
[3] = Hydrolysis rate of chelate esters by 1H and 13C-NMR; settings: 70° C.
Experimental: as §1, with “Fe-TSV.” for “Fe-TSV. The percentage of hydrolysis is defined by:”

[4] = Surface tension, bubble pressure tensiometer; settings: 25° C.
Experimental: (§2) In addition, where possible, the following physical properties of the chelate esters were determined at 25° C.: • Viscosity in mPas • Surface tension in mN/m • Density in kg/m^3
(§3) The viscosity was determined with a Brookfield DV-II viscometer equipped with spindle 25, which is suitable to measure high-viscous liquids. The principle of operation of the DV-II is to drive a specific spindle which is immersed in the test fluid. The viscous drag of the fluid against the spindle is measured by a calibrated spring. The viscosity is calculated from the rotational speed, type, and the torque of the spindle. In addition, the surface tension was determined with a bubble pressure tensiometer. The tensiometer produces gas bubbles at a constant rate and blows them through a capillary which is submerged in the sample liquid. The pressure (P) inside of the bubble continues to increase and the maximum value is obtained when the bubble has the completely hemispherical shape whose radius corresponds exactly to the radius of the capillary.
By following each step of the bubble formation, change of bubble radius, and the corresponding pressure, the dynamic surface tension can be determined using the Laplace equation in the reduced form for spherical bubble shape within the liquid, equation: σ=(ΔPmax·Rcap)/2 where: σ=dynamic surface tension ΔPmax=maximum pressure drop Rcap=radius of capillary

[5] = Density, gravimetric (0.50 ml in weighted pipette); settings: for Density: 25° C.; for density compared with water (in words): not measurable for the highly viscous esters
Experimental: as §2
The density was determined gravimetrically by slowly sucking up exactly 0.50 ml of the chelate ester in a weighted pipette and by weighing the total weight of the pipette and the chelate-ester, the weight of 0.50 ml of chelate ester could be determined.

[6] = Viscosity of chelate esters, Brookfield DV-II viscometer, spindle 25; settings: 25° C.
Experimental: as §2, §3

pH of the ester in water = assay: pH of the ester in water
[7] = 1 wt % / 1% slurry in water, product as formed (acidic)

Row | Compound | Soluble in water (pH = 0.5) [2] | Surface tension [4] | Density [5] | Viscosity [6] | other results
1 | CC(C(=O)O)N(CC(=O)O)CC(=O)O (stereo not shown) [MGDA, methylglycine N,N-diacetic acid] | – | – | – | – | solubility of the chelate acid compared with EDTA acid [1]: significantly higher
2 | COC(=O)CN(CC(=O)OC)C(C)C(=O)OC (stereo not shown) [MGDA 3 methyl ester, MGDA-trimethyl ester] | Yes | – | – | – | rate of hydrolysis (in words) [1]: nearly the same speed of hydrolysis; time to almost complete hydrolysis [3]: ~2 days
3 | CCCOC(=O)CCC(C(=O)OCCC)N(CC(=O)OCCC)CC(=O)OCCC (stereo not shown) [GLDA 4 propyl ester, GLDA-tetrapropyl ester] | no (2 phases) | 69.2 mN/m | 1.11 g/mL | 178 mPas | Soluble in water (pH = ~7) [2]: no (2 phases); effect of pH on hydrolysis rate (release of chelating agent) [1]: decreased slightly with increasing pH
4 | CCCCOC(=O)CCC(C(=O)OCCCC)N(CC(=O)OCCCC)CC(=O)OCCCC (stereo not shown) [GLDA 4 butyl ester, GLDA-tetrabutyl ester] | no (2 phases) | 41.3 mN/m | 1.04 g/mL | 38 mPas | –
5 | CCOC(=O)CCC(C(=O)OCC)N(CC(=O)OCC)CC(=O)OCC (stereo not shown) [GLDA tetra ethyl ester] | – | – | – | – | pH (pH of the ester in water; 1% slurry in water, less acidic product after treatment with 1 eq Na2CO3): ~9; pH (pH of the ester in water; [7]): 1.8
6 | CCCCOC(=O)CN(CCN(CC(=O)OCCCC)CC(=O)OCCCC)CC(=O)OCCCC [EDTA 4 butyl ester, EDTA-tetrabutyl ester, reference compound] | no (2 phases) | 52.6 mN/m | > 1 g/mL | 8,100 mPas | density compared with water (in words) [5]: clearly higher than water
7 | GLDA Mono Ethyl Ester | – | – | – | – | pH (pH of the ester in water; [7]): 1.8
8 | CCCOC(=O)CN(CCN(CC(=O)OCCC)CC(=O)OCCC)CC(=O)OCCC [EDTA 4 propyl ester, EDTA-tetrapropyl ester, reference compound] | Yes | 51.3 mN/m | > 1 g/mL | 260,000 mPas | Soluble in water (pH = ~7) [2]: no (2 phases); density compared with water (in words) [5]: clearly higher than water; effect of pH on hydrolysis rate (release of chelating agent) [1]: decreased slightly with increasing pH
9 | O=C(O)CC[C@@H](C(=O)O)N(CC(=O)O)CC(=O)O [GLDA, glutamic acid N,N-diacetic acid] | – | – | – | – | solubility of the chelate acid compared with EDTA acid [1]: significantly higher
10 | COC(=O)CN(CCN(CC(=O)OC)CC(=O)OC)CC(=O)OC [EDTA 4 methyl ester, EDTA-tetramethyl ester, reference compound] | Yes | – | – | – | Soluble in water (pH = ~7) [2]: Yes; rate of hydrolysis (in words) [1]: hydrolyzed much faster than the corresponding GLDA or MGDA-methyl ester
11 | COC(=O)CCC(C(=O)OC)N(CC(=O)OC)CC(=O)OC (stereo not shown) [GLDA 4 methyl ester, GLDA-tetramethyl ester] | Yes | – | – | – | rate of hydrolysis (in words) [1]: nearly the same speed of hydrolysis; time to almost complete hydrolysis [3]: ~2 days
12 | CCCCOCCOC(=O)CCC(C(=O)OCCOCCCC)N(CC(=O)OCCOCCCC)CC(=O)OCCOCCCC (stereo not shown) [GLDA 4 EGMBE, GLDA-tetraEMGBE ester] | no (2 phases) | 47.8 mN/m | 1.06 g/mL | 67 mPas | –
